Values joined by “and” are separate entries in the source; they are usually repeats but may differ in a detail not shown here. Equal values may be shown once. Inconclusive results and toxic doses are left out.
System: P388 leukemia ip, CD2F1 mice, survival T/C
Assay: NCI In Vivo Anticancer Drug Screen. Data for tumor model P388 Leukemia (intraperitoneal) in CD2F1 (CDF1) mice
Conditions: endpoint: median survival time, higher = longer survival
In short: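 Mice carrying the transplanted tumor received test compound or vehicle. Survival was recorded in each group, and the value is the treated-group measurement divided by that of the vehicle-treated control group.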

[1] = dose: 50.0 mg/kg/injection, schedule: Q01DX009 (ip), vehicle: Klucel (hydroxypropylcellulose) (HPC)
[2] = dose: 100.0 mg/kg/injection, schedule: Q01DX009 (ip), vehicle: Klucel (hydroxypropylcellulose) (HPC)
[3] = dose: 200.0 mg/kg/injection, schedule: Q01DX009 (ip), vehicle: Klucel (hydroxypropylcellulose) (HPC)
[4] = dose: 12.5 mg/kg/injection, schedule: Q01DX009 (ip), vehicle: saline with Tween-80
[5] = dose: 100.0 mg/kg/injection, schedule: Q01DX001 (ip), vehicle: Klucel (hydroxypropylcellulose) (HPC)
[6] = dose: 200.0 mg/kg/injection, schedule: Q01DX001 (ip), vehicle: Klucel (hydroxypropylcellulose) (HPC)
[7] = dose: 400.0 mg/kg/injection, schedule: Q01DX001 (ip), vehicle: Klucel (hydroxypropylcellulose) (HPC)
[8] = dose: 25.0 mg/kg/injection, schedule: Q01DX005 (ip), vehicle: Klucel (hydroxypropylcellulose) (HPC)
[9] = dose: 50.0 mg/kg/injection, schedule: Q01DX005 (ip), vehicle: Klucel (hydroxypropylcellulose) (HPC)
[10] = dose: 100.0 mg/kg/injection, schedule: Q01DX005 (ip), vehicle: Klucel (hydroxypropylcellulose) (HPC)
[11] = dose: 100.0 mg/kg/injection, schedule: Q04DX003 (ip), vehicle: saline with Tween-80
[12] = dose: 200.0 mg/kg/injection, schedule: Q04DX003 (ip), vehicle: saline with Tween-80
[13] = dose: 400.0 mg/kg/injection, schedule: Q04DX003 (ip), vehicle: saline with Tween-80

Compound: S=P(N1CC1)(N1CC1)N1CC1
- T/C (dose: 0.62 mg/kg/injection, schedule: Q01DX005 (ip), vehicle: saline): 100 % of control
- T/C (dose: 0.75 mg/kg/injection, schedule: Q01DX005 (ip), vehicle: saline): 118 % of control
- T/C (dose: 0.75 mg/kg/injection, schedule: Q01DX009 (ip), vehicle: saline): 106 % of control
- T/C (dose: 1.25 mg/kg/injection, schedule: Q01DX005 (ip), vehicle: saline): 115 % of control
- T/C (dose: 1.25 mg/kg/injection, schedule: Q04DX003 (ip), vehicle: water): 101 % of control and 110 % of control (2×)
- T/C (dose: 1.5 mg/kg/injection, schedule: Q01DX005 (ip), vehicle: saline): 114 % of control and 120 % of control
- T/C (dose: 2.0 mg/kg/injection, schedule: Q01DX009 (ip), vehicle: saline): 124 % of control
- T/C (dose: 2.5 mg/kg/injection, schedule: Q04DX003 (ip), vehicle: water): 110 % of control
- T/C (dose: 3.0 mg/kg/injection, schedule: Q01DX005 (ip), vehicle: saline): 163 % of control
- T/C (dose: 3.0 mg/kg/injection, schedule: Q01DX009 (ip), vehicle: saline): 163 % of control and 174 % of control
- T/C (dose: 3.24 mg/kg/injection, schedule: Q04DX002 (ip), vehicle: saline): 124 % of control
- T/C (dose: 4.0 mg/kg/injection, schedule: Q01DX009 (ip), vehicle: saline): 178 % of control
- T/C (dose: 5.0 mg/kg/injection, schedule: Q01DX005 (ip), vehicle: saline): 169 % of control
- T/C (dose: 5.0 mg/kg/injection, schedule: Q04DX003 (ip), vehicle: water): 163 % of control
- T/C (dose: 6.0 mg/kg/injection, schedule: Q01DX005 (ip), vehicle: saline): 181 % of control and 207 % of control and 90 % of control
- T/C (dose: 8.0 mg/kg/injection, schedule: Q01DX009 (ip), vehicle: saline): 101 % of control
- T/C (dose: 9.0 mg/kg/injection, schedule: Q04DX002 (ip), vehicle: saline): 166 % of control
- T/C (dose: 10.0 mg/kg/injection, schedule: Q04DX003 (ip), vehicle: water): 159 % of control and 200 % of control and 229 % of control
- T/C (dose: 12.0 mg/kg/injection, schedule: Q01DX005 (ip), vehicle: saline): 88 % of control
- T/C (dose: 15.0 mg/kg/injection, schedule: Q04DX002 (ip), vehicle: saline): 197 % of control
- T/C (dose: 20.0 mg/kg/injection, schedule: Q04DX003 (ip), vehicle: water): 110 % of control and 90 % of control and 92 % of control
- T/C (dose: 25.0 mg/kg/injection, schedule: Q04DX002 (ip), vehicle: saline): 240 % of control

Compound: Cc1ccc(S(=O)(=O)NCCCc2ccccc2)cc1
- T/C [1]: 118 % of control
- T/C [2]: 123 % of control
- T/C [3]: 115 % of control

Compound: O=C(Nc1ccc(-c2c[nH]c(=O)c([N+](=O)[O-])c2)cc1)OCc1ccccc1
- T/C (dose: 6.25 mg/kg/injection, schedule: Q01DX009 (ip), vehicle: saline with Tween-80): 95 % of control
- T/C [4]: 95 % of control

Compound: CCOC(=O)C1=C(N)CCCC1
- T/C (dose: 50.0 mg/kg/injection, schedule: Q01DX001 (ip), vehicle: Klucel (hydroxypropylcellulose) (HPC)): 107 % of control
- T/C [5]: 96 % of control
- T/C [6]: 110 % of control
- T/C [7]: 99 % of control

Compound: Cc1cn(O)ccc1=S
- T/C (dose: 100.0 mg/kg/injection, schedule: Q04DX002 (ip), vehicle: Klucel (hydroxypropylcellulose) (HPC)): 101 % of control
- T/C (dose: 200.0 mg/kg/injection, schedule: Q04DX002 (ip), vehicle: Klucel (hydroxypropylcellulose) (HPC)): 99 % of control
- T/C (dose: 400.0 mg/kg/injection, schedule: Q04DX002 (ip), vehicle: Klucel (hydroxypropylcellulose) (HPC)): 101 % of control

Compound: S=c1cc(S)sc2c1c(=S)sc1nc3ccccn3c(=S)c12
- T/C (dose: 12.5 mg/kg/injection, schedule: Q01DX005 (ip), vehicle: Klucel (hydroxypropylcellulose) (HPC)): 96 % of control
- T/C [8]: 99 % of control and 98 % of control
- T/C [9]: 96 % of control
- T/C [10]: 107 % of control and 94 % of control

Compound: CC(=O)NC1C(S[As](C)C)OC(COC(C)=O)C(OC(C)=O)C1OC(C)=O (configuration not stated)
- T/C [4]: 102 % of control
- T/C (dose: 25.0 mg/kg/injection, schedule: Q01DX009 (ip), vehicle: saline with Tween-80): 113 % of control
- T/C (dose: 50.0 mg/kg/injection, schedule: Q01DX009 (ip), vehicle: saline with Tween-80): 116 % of control
- T/C (dose: 200.0 mg/kg/injection, schedule: Q01DX009 (ip), vehicle: saline with Tween-80): 115 % of control

Compound: CC(=O)O[C@@H]1C[C@H]2C(C)(C)C(=O)C=C[C@]2(C)[C@H]2CC[C@]3(C)C(=CC(=O)O[C@H]3c3ccoc3)[C@@]21C
- T/C (dose: 2.5 mg/kg/injection, schedule: Q01DX009 (ip), vehicle: Klucel (hydroxypropylcellulose) (HPC)): 103 % of control
- T/C (dose: 5.0 mg/kg/injection, schedule: Q01DX009 (ip), vehicle: Klucel (hydroxypropylcellulose) (HPC)): 100 % of control
- T/C (dose: 10.0 mg/kg/injection, schedule: Q01DX009 (ip), vehicle: Klucel (hydroxypropylcellulose) (HPC)): 103 % of control and 97 % of control
- T/C (dose: 20.0 mg/kg/injection, schedule: Q01DX009 (ip), vehicle: Klucel (hydroxypropylcellulose) (HPC)): 95 % of control
- T/C (dose: 40.0 mg/kg/injection, schedule: Q01DX009 (ip), vehicle: Klucel (hydroxypropylcellulose) (HPC)): 103 % of control

Compound: COC(=O)CN(CC(=O)OC)C1CC1N(CC(=O)OC)CC(=O)OC (configuration not stated)
- T/C [1]: 89 % of control
- T/C [5]: 98 % of control
- T/C [2]: 97 % of control
- T/C [6]: 102 % of control
- T/C [3]: 95 % of control
- T/C [7]: 89 % of control

Compound: N=C(N)c1ccc(/C=C/c2cc3ccc(C(=N)N)cc3[nH]2)cc1
- T/C (dose: 6.25 mg/kg/injection, schedule: Q04DX003 (ip), vehicle: saline): 113 % of control

Compound: COC(=O)c1cc(/C=C/c2ccccc2)[nH]c(=O)c1C#N
- T/C (dose: 60.0 mg/kg/injection, schedule: Q01DX005 (ip), vehicle: saline with Tween-80): 106 % of control
- T/C (dose: 120.0 mg/kg/injection, schedule: Q01DX005 (ip), vehicle: saline with Tween-80): 105 % of control
- T/C (dose: 240.0 mg/kg/injection, schedule: Q01DX005 (ip), vehicle: saline with Tween-80): 98 % of control

Compound: N=C(N)SCCC(=O)Nc1ccccc1
- T/C [11]: 106 % of control
- T/C [12]: 106 % of control

Compound: O=C(O)CN1C(=O)C=CC1=O
- T/C (dose: 3.12 mg/kg/injection, schedule: Q01DX009 (ip), vehicle: saline): 90 % of control
- T/C (dose: 6.25 mg/kg/injection, schedule: Q01DX009 (ip), vehicle: saline): 101 % of control
- T/C (dose: 12.5 mg/kg/injection, schedule: Q01DX009 (ip), vehicle: saline): 101 % of control and 86 % of control

Compound: O=c1cc(CC2(O)CCCCC2)c2ccccc2[nH]1
- T/C (dose: 60.0 mg/kg/injection, schedule: Q01DX005 (ip), vehicle: Klucel (hydroxypropylcellulose) (HPC)): 95 % of control
- T/C (dose: 120.0 mg/kg/injection, schedule: Q01DX005 (ip), vehicle: Klucel (hydroxypropylcellulose) (HPC)): 102 % of control
- T/C (dose: 240.0 mg/kg/injection, schedule: Q01DX005 (ip), vehicle: Klucel (hydroxypropylcellulose) (HPC)): 95 % of control

Compound: OC1(c2ccccc2)C2CC1C2 (configuration not stated)
- T/C (dose: 100.0 mg/kg/injection, schedule: Q04DX002 (ip), vehicle: saline): 104 % of control
- T/C (dose: 200.0 mg/kg/injection, schedule: Q04DX002 (ip), vehicle: saline): 101 % of control
- T/C (dose: 400.0 mg/kg/injection, schedule: Q04DX002 (ip), vehicle: saline): 102 % of control

Compound: CN(C)c1ccc2c(Nc3ccc(NS(C)(=O)=O)cc3)c3ccc(N(C)C)cc3nc2c1
- T/C [8]: 161 % of control
- T/C [9]: 153 % of control and 155 % of control
- T/C [10]: 172 % of control and 212 % of control
- T/C (dose: 200.0 mg/kg/injection, schedule: Q01DX005 (ip), vehicle: Klucel (hydroxypropylcellulose) (HPC)): 173 % of control and 216 % of control

Compound: Cc1cc(C)n2nc(CC#N)c(C#N)c2n1
- T/C (dose: 12.5 mg/kg/injection, schedule: Q01DX009 (ip), vehicle: Klucel (hydroxypropylcellulose) (HPC)): 109 % of control
- T/C (dose: 25.0 mg/kg/injection, schedule: Q01DX009 (ip), vehicle: Klucel (hydroxypropylcellulose) (HPC)): 100 % of control and 107 % of control and 97 % of control
- T/C [1]: 100 % of control and 105 % of control and 109 % of control
- T/C [2]: 123 % of control and 94 % of control and 97 % of control

Compound: O=C(Nc1ccccc1)c1cc(Cl)ccc1O
- T/C [11]: 100 % of control
- T/C [12]: 100 % of control
- T/C [13]: 100 % of control

Compound: CN(C)[C@@H]1C(=O)C(C(=O)NCNCCCC(=O)O)=C(O)[C@@]2(O)C(=O)C3=C(O)c4c(O)cccc4[C@@](C)(O)[C@H]3C[C@@H]12
- T/C [11]: 104 % of control
- T/C [12]: 100 % of control
- T/C [13]: 95 % of control

Reference: PubChem BioAssay AID330 (DTP/NCI, 2004)
